The values that follow come from US7601856B2 (Wyeth, priority 2006, dated 2009).

As usually defined, the IC50 is the concentration that inhibits the measured activity by half. What is called inhibition is the percentage by which the read-out fell short of the control.

Structures are written as SMILES. Read-outs that look alike come from different tables or passages of the source.

For this assay, the system named is isolated rat bladder strips. Description: Inhibition of contractions of isolated rat bladder strips. The following applies: for IC50: 0.5 h; for inhibition at 30 µM: read-out: % Inhibition of Contractility @ 30 μM. On the procedure:
The compounds of the examples were tested to determine their ability to inhibit contractions of isolated rat bladder strips. See Foster, C. […] Malmgren, A. et al. J.Urol.
Male Sprague-Dawley rats (150-200 g) were obtained from ACE animal suppliers. Animals were allowed free access to food and water.
Animals were euthanized by CO2 asphyxiation followed by a bilateral thoracotomy. […] The bladder was opened and then cut into strips 1-2 mm in width and 7-10 mm in length. The strips were subsequently suspended in a 10 ml tissue bath under an initial resting tension of 1.5 g. The strips were held in place by two surgical clips one of which was attached to a fixed hook while the other was attached to an isometric force transducer. […] The carbachol was then washed out and the tissue allowed to relax to its resting level of activity. Following a further 30 minute period of recovery an additional 15 mM KCl were introduced into the tissue bath. […] Following stabilization of this enhanced level of contractile activity, incremental increases in the concentration of test compound or vehicle were introduced into the tissue bath. Contractile activity was measured for each compound or vehicle concentration during the last minute of a 30 minute challenge.
Isometric force developed by the bladder strips was measured using a force transducer and recorded on a polygraph. Contractile activity was assessed by measuring either the average amplitude of the contractions (baseline to peak force) occurring during a one minute period or, preferably, by integrating the contractile activity with respect to time (one minute measuring period).
The percentage inhibition of contractile activity evoked by each concentration of a given test compounds was used to generate a concentration-response curve.

The mark [1] stands for this setting: concentration eliciting 50% inhibition of pre-drug contractile activity, strips stimulated with additional 15 mM KCl, 30 minute challenge per concentration, read-out: IC50.
The mark [2] stands for this setting: maximum percentage inhibition of contractile activity, 30 μM, strips stimulated with additional 15 mM KCl.

Consider `CCCC(=O)Nc1ccc2oc3c(c2c1)CCCC3` [Example 10, N-(6,7,8,9-TETRAHYDRO-DIBENZOFURAN-2-YL)-BUTYRAMIDE], for which the 50% inhibitory concentration (IC50) under setting [1] was 10 to 15 µM. Consider `CC(C)(C)OC(=O)N1CCC[C@H]1C(=O)Nc1ccc2oc3c(c2c1)CCCCC3` [Example 54, TERT-BUTYL (2S)-2-[(7,8,9,10-TETRAHYDRO-6H-BENZO[B]CYCLOHEPTA[D]FURAN-2-YLAMINO)CARBONYL]PYRROLIDINE-1-CARBOXYLATE], for which, under setting [1], the IC50 lay in the range of 6 to 8 µM. The same measure, in the same setting: in the case of `CC(C)(C)c1ccc(C(=O)Nc2ccc3oc4c(c3c2)CCCCC4)cc1` [Example 33, 4-TERT-BUTYL-N-(7,8,9,10-TETRAHYDRO-6H-BENZO[B]CYCLOHEPTA[D]FURAN-2-YL)BENZAMIDE] it was 2 to 3 µM; in that of `CCCCCC(=O)Nc1ccc2oc3c(c2c1)CCCCC3` [Example 35, N-(7,8,9,10-TETRAHYDRO-6H-BENZO[B]CYCLOHEPTA[D]FURAN-2-YL)HEXANAMIDE], 6 to 9 µM. On to `O=C(CCl)Nc1ccc2oc3c(c2c1)CCCCCC3` [Example 79, 2-CHLORO-N-6,7,8,9,10,11-HEXAHYDROBENZO[B]CYCLOOCTA[D]FURAN-2-YLACETAMIDE], for which the half-inhibitory concentration (IC50) is 0.2 to 0.4 µM. Turning to `CCOC(=O)Nc1ccc2oc3c(c2c1)CCCCC3` [Example 85, ETHYL 7,8,9,10-TETRAHYDRO-6H-BENZO[B]CYCLOHEPTA[D]FURAN-2-YLCARBAMATE], the inhibition at 30 µM under setting [2] fell in the range of 40 to 60%. Regarding `O=C(Nc1ccc2oc3c(c2c1)CCCC3)c1ccc(Cl)cc1` [Example 17, 4-CHLORO-N-(6,7,8,9-TETRAHYDRO-DIBENZOFURAN-2-YL)-BENZAMIDE], the inhibition at 30 µM under setting [2] was in the range of 25 to 30%. On to `O=C(Nc1ccc2oc3c(c2c1)CCCCCC3)c1ccco1` [Example 74, N-(6,7,8,9,10,11-HEXAHYDROBENZO[B]CYCLOOCTA[D]FURAN-2-YL)-2-FURAMIDE], for which the IC50 under setting [1] was in the range of 10 to 15 µM.

With `O=C(CCC1CCCC1)Nc1ccc2oc3c(c2c1)CCCCCC3` [Example 70, 3-CYCLOPENTYL-N-(6,7,8,9,10,11-HEXAHYDROBENZO[B]CYCLOOCTA[D]FURAN-2-YL)PROPANAMIDE], the inhibition at 30 µM under setting [2] lay in the range of 15 to 30%.

Turning to `O=C(CCc1ccccc1)Nc1ccc2oc3c(c2c1)CCCCCC3` [Example 72, N-(6,7,8,9,10,11-HEXAHYDROBENZO[B]CYCLOOCTA[D]FURAN-2-YL)-3-PHENYLPROPANAMIDE], the IC50 under setting [1] was 0.8 to 2.2 µM. For the molecule `CCCCC(=O)Nc1ccc2oc3c(c2c1)CCCCCC3` [Example 81, N-6,7,8,9,10,11-HEXAHYDROBENZO[B]CYCLOOCTA[D]FURAN-2-YLPENTANAMIDE], the inhibition at 30 µM fell in the range of 10 to 30%. Turning to `CC(C)(C)OC(=O)NCC(=O)Nc1ccc2oc3c(c2c1)CCCCC3` [Example 51, TERT-BUTYL [2-OXO-2-(7,8,9,10-TETRAHYDRO-6H-BENZO[B]CYCLOHEPTA[D]FURAN-2-YLAMINO)ETHYL]CARBAMATE], the inhibition at 30 µM under setting [2] lay within 25 to 40%. Consider `CCOC(=O)CCC(=O)Nc1ccc2oc3c(c2c1)CCCCC3` [Example 32, ETHYL 4-OXO-4-(7,8,9,10-TETRAHYDRO-6H-BENZO[B]CYCLOHEPTA[D]FURAN-2-YLAMINO)BUTANOATE], for which, under setting [1], the 50% inhibitory concentration (IC50) lay within 9 to 12 µM. As for `O=C(Nc1ccc2oc3c(c2c1)CCCC3)c1ccc(F)cc1` [Example 19, 4-FLUORO-N-(6,7,8,9-TETRAHYDRODIBENZO[B,D]FURAN-2-YL)BENZAMIDE], the inhibition at 30 µM under setting [2] is 25 to 35%.

For `O=C(Cc1ccc(F)cc1)Nc1ccc2oc3c(c2c1)CCCCC3` [Example 30, 2-(4-FLUOROPHENYL)-N-(7,8,9,10-TETRAHYDRO-6H-BENZO[B]CYCLOHEPTA[D]FURAN-2-YL)ACETAMIDE], the inhibition at 30 µM under setting [2] fell in the range of 30 to 50%. For `O=C(CO)Nc1ccc2oc3c(c2c1)CCCCCC3` [Example 80, N-6,7,8,9,10,11-HEXAHYDROBENZO[B]CYCLOOCTA[D]FURAN-2-YL-2-HYDROXYACETAMIDE], the inhibition at 30 µM under setting [2] was in the range of 30 to 50%. As to `O=C(Nc1ccc2oc3c(c2c1)CCCCCC3)N1CCOCC1` [Example 86, N-(6,7,8,9,10,11-HEXAHYDROBENZO[B]CYCLOOCTA[D]FURAN-2-YL)MORPHOLINE-4-CARBOXAMIDE], the IC50 under setting [1] lay within 7 to 9 µM.
